In US8815880B2, “Crystal of tricyclic pyrazolopyrimidine derivative” (Daiichi Sankyo Company, Limited, priority 2010, dated 2014):

How the values were obtained:
[1] = Purity test and stability test (accelerated test, HPLC related substances); format: physicochemical; conditions: monohydrochloride
Experimental: Purity Test and Stability Test
• Condition 1: 40° C., humidity: 75% • Condition 2: 60° C. (without humidity control)
Samples under the aforementioned accelerated test conditions were measured by high performance liquid chromatography as described below.
An analyte for the accelerated test was dissolved in the sample-dissolved solution to prepare an approximately 0.5 g/L solution.
• Column: YMC-Pack Pro C18RS, 3.0 mm ID×150 mm, particle diameter: 3 μm • Column temperature: approximately 40° C. • Gradient conditions:
45 to 55 minutes, mobile phase A: 0/mobile phase B: 100 • Flow rate: 0.7 ml/min • Measurement range: 0 to 55 minutes • Detection wavelength: 240 nm • Amount of sample solution injected: 5 μl <Calculation> • 1) The sample solution was injected into the column, so as to obtain the peak area (A) of each related substance and the peak area (T) of compound (1). • 2) The sample-dissolved solution was injected into the column, so as to obtain the peak area (B) of each blank. • 3) The amount [%] of each related substance was calculated using the formula: The amount [%] of each related substance=100×(A−B)÷T <Measurement Results>

[2] = tested on: human lung cancer cell line NCI-H460; test: Cell growth inhibition assay (MTT), NCI-H460; format: cell-based; conditions: NCI-H460 cells, 72 hours, read-out: GI50 value (50% growth inhibitory concentration)
Experimental: (§1) A cell growth inhibition assay was performed using two types of cells (human breast cancer cell line SK-BR-3 and human lung cancer cell line NCI-H460).
(§2) Cells of each type were suspended in a medium and seeded into a 96-well multi-well plate at 2000 cells/150 μL/well in the case of SK-BR-3 and at 500 cells/150 μL/well in the case of NCI-H460. Compound (1) was dissolved in DMSO, and this was diluted with medium to prepare a sample solution (DMSO concentration: 0.5% or less). On the day following the seeding, 50 μL of DMSO-containing medium to which the test compound was not added (hereinafter called DMSO diluted solution; DMSO concentration: 0.5% or less) or 50 μL of the sample solution was further added to the cells. An MTT assay was performed immediately after and 72 hours after adding the sample solution or the DMSO diluted solution to the cells. The MTT assay was performed as follows.
(§3) 5 mg/mL of an MTT (3-(4,5-dimethylthiazol-2-yl)-2,5-diphenyltetrazolium bromide) solution was added at 20 μL per well. Thereafter, the plate was incubated at 37° C. in 5% CO2 for four hours. The plate was centrifuged at 1200 rpm for five minutes, and then the culture supernatant was removed by suction using a dispenser. DMSO was added at 150 μL per well, and the generated formazan was dissolved. […] The absorbance of each well was measured using a plate reader at an OD of 540 nm with a reference of 660 nm. […]

[3] = tested on: human breast cancer cell line SK-BR-3; test: Cell growth inhibition assay (MTT), SK-BR-3; format: cell-based; conditions: SK-BR-3 cells, 72 hours, read-out: GI50 value (50% growth inhibitory concentration)
Experimental: as §1, §2, §3

[4] = Accelerated condition 1: 40° C., humidity 75%, 2 weeks
[5] = Accelerated condition 1: 40° C., humidity 75%, 4 weeks
[6] = Accelerated condition 2: 60° C. (without humidity control), 2 weeks
[7] = Accelerated condition 2: 60° C. (without humidity control), 4 weeks
[8] = Purity test (Initial), before accelerated test

| Compound | Impurity (rrt 0.43) amount [1, 4] [%] | Impurity: Total of unspecified [1, 4] [%] | Impurity (rrt 0.43) amount [1, 5] [%] | Impurity: Total of unspecified [1, 5] [%] | Impurity (rrt 0.43) amount [1, 6] [%] | Impurity: Total of unspecified [1, 6] [%] | Impurity (rrt 0.43) amount [1, 7] [%] | Impurity: Total of unspecified [1, 7] [%] | Impurity (rrt 0.43) amount [1, 8] [%] | Impurity: Total of unspecified [1, 8] [%] | GI50 [2] [µM] | GI50 [3] [µM] |
| --- | --- | --- | --- | --- | --- | --- | --- | --- | --- | --- | --- | --- |
| CNC(=O)CC1=Cc2nn(Cc3ncc(C)c(OC)c3Cl)c3nc(N)nc(c23)SC1.Cl [Example 4, 2-{4-Amino-2-[(3-chloro-4-methoxy-5-methylpyridin-2-yl)methyl]-2,7-dihydro-6-thia-1,2,3,5-tetraazabenzo[cd]azulen-8-yl}-N-methylacetamide monohydrochloride] | 0.94 | 1.83 | 1.04 | 2.08 | 1.09 | 2.31 | 1.21 | 2.42 | 0.75 | 1.64 | – | – |
| CNC(=O)CC1=Cc2nn(Cc3ncc(C)c(OC)c3Cl)c3nc(N)nc(c23)SC1 [Compound (1), 2-{4-amino-2-[(3-chloro-4-methoxy-5-methylpyridin-2-yl)methyl]-2,7-dihydro-6-thia-1,2,3,5-tetraazabenzo[cd]azulen-8-yl}-N-methylacetamide] | – | – | – | – | – | – | – | – | – | – | 0.026 | 0.013 |
| CNC(=O)CC1=Cc2nn(Cc3ncc(C)c(OC)c3Cl)c3nc(N)nc(c23)SC1.Cl [Example 12, 2-{4-Amino-2-[(3-chloro-4-methoxy-5-methylpyridin-2-yl)methyl]-2,7-dihydro-6-thia-1,2,3,5-tetraazabenzo[cd]azulen-8-yl}-N-methylacetamide monohydrochloride] | 0.30 | 1.08 | 0.33 | 1.09 | 0.32 | 1.20 | 0.33 | 1.20 | 0.27 | 1.00 | – | – |
| CNC(=O)CC1=Cc2nn(Cc3ncc(C)c(OC)c3Cl)c3nc(N)nc(c23)SC1.Cl [Example 28, 2-{4-Amino-2-[(3-chloro-4-methoxy-5-methylpyridin-2-yl)methyl]-2,7-dihydro-6-thia-1,2,3,5-tetraazabenzo[cd]azulen-8-yl}-N-methylacetamide monohydrochloride] | 0.41 | 1.14 | 0.44 | 1.12 | 0.44 | 1.25 | 0.45 | 1.18 | 0.37 | 1.07 | – | – |
